Targets include CDK11B (human) (UniProt P21127); HIPK1 (human) (UniProt Q86Z02); NEK2 (human) (UniProt P51955); NUAK2 (human) (UniProt Q9H093); PAK1 (human) (UniProt Q13153); RIPK4 (human) (UniProt P57078); SBK1 (human) (UniProt Q52WX2); STK17A (human) (UniProt Q9UEE5); TGFBR2 (human) (UniProt P37173).
Assay in all cases: KINOMEscan competition binding
What all share (conditions): compound 1.0 µM

In experiment [1] the target is JAK3 JH1 catalytic (human) (UniProt P52333).

PAK1 (human), sequence (Q13153 whole entry, looked up): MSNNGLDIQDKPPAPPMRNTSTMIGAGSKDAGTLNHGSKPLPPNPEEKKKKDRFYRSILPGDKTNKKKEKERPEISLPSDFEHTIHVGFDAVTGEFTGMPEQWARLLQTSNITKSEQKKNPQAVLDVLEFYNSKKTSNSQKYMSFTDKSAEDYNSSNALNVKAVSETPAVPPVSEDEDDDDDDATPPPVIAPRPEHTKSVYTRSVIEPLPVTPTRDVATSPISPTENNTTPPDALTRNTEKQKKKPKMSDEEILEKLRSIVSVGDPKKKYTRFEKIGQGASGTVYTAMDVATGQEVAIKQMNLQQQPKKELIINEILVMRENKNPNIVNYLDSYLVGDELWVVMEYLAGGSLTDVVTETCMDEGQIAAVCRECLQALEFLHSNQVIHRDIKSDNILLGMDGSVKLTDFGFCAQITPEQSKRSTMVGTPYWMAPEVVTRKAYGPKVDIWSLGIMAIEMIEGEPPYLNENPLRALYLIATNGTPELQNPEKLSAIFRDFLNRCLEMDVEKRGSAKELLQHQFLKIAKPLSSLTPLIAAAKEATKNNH
NUAK2 (human), sequence (Q9H093 whole entry, looked up): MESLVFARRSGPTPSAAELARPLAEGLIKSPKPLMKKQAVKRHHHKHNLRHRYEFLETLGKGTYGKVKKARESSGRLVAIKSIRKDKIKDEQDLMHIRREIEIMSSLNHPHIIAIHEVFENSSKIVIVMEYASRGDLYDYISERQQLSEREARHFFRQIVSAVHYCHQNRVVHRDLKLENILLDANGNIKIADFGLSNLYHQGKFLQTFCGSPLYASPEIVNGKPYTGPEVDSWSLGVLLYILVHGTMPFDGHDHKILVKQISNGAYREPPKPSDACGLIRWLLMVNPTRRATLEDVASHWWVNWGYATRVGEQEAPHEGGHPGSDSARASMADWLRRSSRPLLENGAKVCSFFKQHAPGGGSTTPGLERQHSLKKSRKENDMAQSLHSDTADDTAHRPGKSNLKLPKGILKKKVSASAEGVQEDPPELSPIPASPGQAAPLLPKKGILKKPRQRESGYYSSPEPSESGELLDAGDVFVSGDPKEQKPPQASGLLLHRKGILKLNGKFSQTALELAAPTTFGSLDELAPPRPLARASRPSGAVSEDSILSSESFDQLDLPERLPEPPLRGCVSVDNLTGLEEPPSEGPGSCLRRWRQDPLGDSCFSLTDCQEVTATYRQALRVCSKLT
SBK1 (human), sequence (Q52WX2 whole entry, looked up): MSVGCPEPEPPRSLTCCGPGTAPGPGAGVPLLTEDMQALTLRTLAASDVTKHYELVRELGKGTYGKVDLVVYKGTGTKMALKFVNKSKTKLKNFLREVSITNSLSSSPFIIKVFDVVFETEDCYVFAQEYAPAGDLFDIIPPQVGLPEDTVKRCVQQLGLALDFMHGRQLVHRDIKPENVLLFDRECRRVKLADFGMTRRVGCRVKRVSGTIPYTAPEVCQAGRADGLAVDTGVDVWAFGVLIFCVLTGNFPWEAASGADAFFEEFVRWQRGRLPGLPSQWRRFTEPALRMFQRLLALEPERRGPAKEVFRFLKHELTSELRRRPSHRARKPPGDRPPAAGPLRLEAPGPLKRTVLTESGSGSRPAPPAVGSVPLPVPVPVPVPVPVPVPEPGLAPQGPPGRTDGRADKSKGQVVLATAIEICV
NEK2 (human), sequence (P51955 whole entry, looked up): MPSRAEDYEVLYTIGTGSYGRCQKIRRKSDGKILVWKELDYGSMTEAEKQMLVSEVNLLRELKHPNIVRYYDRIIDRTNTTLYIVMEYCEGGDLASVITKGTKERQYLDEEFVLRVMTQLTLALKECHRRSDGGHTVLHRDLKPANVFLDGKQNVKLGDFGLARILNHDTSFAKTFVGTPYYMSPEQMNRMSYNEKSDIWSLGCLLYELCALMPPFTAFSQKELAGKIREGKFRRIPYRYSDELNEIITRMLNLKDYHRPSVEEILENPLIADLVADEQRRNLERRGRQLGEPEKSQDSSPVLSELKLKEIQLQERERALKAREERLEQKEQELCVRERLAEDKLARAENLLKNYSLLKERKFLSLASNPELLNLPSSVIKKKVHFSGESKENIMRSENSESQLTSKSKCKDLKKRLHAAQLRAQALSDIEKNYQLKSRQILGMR
STK17A (human), sequence (Q9UEE5 whole entry, looked up): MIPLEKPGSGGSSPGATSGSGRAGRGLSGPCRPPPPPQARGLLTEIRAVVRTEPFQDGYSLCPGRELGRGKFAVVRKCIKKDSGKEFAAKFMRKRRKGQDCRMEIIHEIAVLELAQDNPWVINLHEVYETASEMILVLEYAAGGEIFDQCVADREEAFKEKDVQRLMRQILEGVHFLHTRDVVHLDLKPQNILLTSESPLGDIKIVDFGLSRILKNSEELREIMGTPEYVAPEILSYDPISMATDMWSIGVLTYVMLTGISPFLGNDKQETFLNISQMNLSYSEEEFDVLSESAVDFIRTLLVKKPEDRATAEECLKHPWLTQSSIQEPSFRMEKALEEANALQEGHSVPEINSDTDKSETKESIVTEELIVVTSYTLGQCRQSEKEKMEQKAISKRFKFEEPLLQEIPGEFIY
HIPK1 (human), sequence (Q86Z02 whole entry, looked up): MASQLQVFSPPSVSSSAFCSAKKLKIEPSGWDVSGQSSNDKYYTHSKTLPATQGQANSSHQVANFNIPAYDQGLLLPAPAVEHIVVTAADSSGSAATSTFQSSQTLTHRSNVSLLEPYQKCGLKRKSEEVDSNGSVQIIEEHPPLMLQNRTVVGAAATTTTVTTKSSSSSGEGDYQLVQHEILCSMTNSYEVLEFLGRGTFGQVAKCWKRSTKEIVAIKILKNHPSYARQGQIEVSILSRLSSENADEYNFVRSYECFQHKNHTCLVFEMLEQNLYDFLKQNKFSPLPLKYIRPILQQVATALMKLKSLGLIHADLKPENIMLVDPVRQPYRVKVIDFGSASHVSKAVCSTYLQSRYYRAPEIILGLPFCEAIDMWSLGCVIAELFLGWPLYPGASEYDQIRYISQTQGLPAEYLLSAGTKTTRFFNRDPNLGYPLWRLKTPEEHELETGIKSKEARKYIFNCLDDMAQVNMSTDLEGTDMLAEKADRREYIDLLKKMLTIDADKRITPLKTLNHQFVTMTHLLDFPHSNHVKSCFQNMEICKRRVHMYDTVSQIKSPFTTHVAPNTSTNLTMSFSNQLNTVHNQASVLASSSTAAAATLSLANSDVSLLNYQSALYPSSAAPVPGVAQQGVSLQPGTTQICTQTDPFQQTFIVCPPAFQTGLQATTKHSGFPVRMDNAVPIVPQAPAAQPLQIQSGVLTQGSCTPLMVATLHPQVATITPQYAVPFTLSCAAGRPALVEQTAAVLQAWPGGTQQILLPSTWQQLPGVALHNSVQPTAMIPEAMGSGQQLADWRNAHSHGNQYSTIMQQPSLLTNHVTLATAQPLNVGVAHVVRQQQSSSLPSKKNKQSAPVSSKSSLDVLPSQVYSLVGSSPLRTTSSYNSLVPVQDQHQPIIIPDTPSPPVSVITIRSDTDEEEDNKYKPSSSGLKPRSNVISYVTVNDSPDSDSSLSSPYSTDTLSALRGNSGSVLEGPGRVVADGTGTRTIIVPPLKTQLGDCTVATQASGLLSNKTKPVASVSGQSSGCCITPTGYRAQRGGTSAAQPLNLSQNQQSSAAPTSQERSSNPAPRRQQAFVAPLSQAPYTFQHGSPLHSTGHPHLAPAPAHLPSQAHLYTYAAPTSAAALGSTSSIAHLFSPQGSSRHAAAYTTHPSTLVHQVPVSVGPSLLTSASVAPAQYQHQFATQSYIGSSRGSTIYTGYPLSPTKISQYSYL
RIPK4 (human), sequence (P57078 whole entry, looked up): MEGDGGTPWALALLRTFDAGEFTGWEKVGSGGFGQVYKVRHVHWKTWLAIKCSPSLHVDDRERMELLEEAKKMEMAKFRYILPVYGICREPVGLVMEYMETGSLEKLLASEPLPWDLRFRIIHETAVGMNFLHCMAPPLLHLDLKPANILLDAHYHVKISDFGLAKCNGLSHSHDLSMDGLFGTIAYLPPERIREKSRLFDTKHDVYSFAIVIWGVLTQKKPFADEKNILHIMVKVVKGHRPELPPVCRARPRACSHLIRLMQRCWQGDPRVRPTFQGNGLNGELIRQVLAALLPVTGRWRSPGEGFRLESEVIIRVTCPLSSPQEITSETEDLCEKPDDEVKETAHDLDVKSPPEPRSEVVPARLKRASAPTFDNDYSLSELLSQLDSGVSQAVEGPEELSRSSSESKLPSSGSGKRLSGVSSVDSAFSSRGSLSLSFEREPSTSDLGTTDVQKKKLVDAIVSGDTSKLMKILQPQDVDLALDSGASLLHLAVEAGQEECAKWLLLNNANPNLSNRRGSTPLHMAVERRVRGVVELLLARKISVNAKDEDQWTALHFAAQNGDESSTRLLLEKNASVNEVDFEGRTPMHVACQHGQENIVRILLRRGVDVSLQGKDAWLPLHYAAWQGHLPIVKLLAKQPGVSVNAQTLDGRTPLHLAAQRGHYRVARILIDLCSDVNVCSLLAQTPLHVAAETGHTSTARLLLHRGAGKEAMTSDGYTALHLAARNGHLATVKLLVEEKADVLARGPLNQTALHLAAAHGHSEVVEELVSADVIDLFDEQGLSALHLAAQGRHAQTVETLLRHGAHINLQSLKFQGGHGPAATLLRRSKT

For `Nc1cc(C(F)(F)F)c(-c2cc(N3CCOCC3)nc(N3CCOCC3)n2)cn1`, the inhibition of binding is 10% on CDK11B (human); 0% on HIPK1 (human); 100% in [1]; 0% at NEK2 (human); 0% at NUAK2 (human); 4% on PAK1 (human). The inhibition of binding on RIPK4 (human) worked out at 0%; at SBK1 (human), 17%; on STK17A (human), 0%; at TGFBR2 (human), 24%.

The record behind these values is the kinase profiling compilation of Christmann-Franck et al. (2016).
